Measured values: patent US6800622B1, “Pyrene-linked pyrrolo[2,1-c][1,4]benzodiazepine hybrids useful as anti-cancer agents” (Council of Scientific and Industrial Research, priority 2003, dated 2004)

Tests used:
MCF7 (Breast) = test: In vitro one dose primary anticancer assay (NCI); assay type: cell-based, human; conditions: one dose at 10^−4 molar concentration
Protocol: (§1) In vitro biological activity studies were carried out at National Cancer Institute (USA).
(§2) Compounds Ve and Vg were evaluated the primary anti-cancer activity (Table 1) and further Ve have been evaluated in vitro against sixty human tumour cells derived from nine cancer types (leukemia, non-small-cell lung, colon, CNS, melanoma, ovarian, prostate, and breast cancer). For each compound, dose response curves for each cell line were measured at a minimum of five concentrations at 10 fold dilutions. A protocol of 48 h continuous drug exposure was used and a sulforhodamine B (SRB) protein assay was used to estimate cell viability or growth. The concentration causing 50% cell growth inhibition (GI50), total cell growth inhibition (TGI 0% growth) and 50% cell death (LC50, −50% growth) compared with the control was calculated.

SF-268 (CNS) = test: In vitro one dose primary anticancer assay (NCI); assay type: cell-based, human; conditions: one dose at 10^−4 molar concentration
Protocol: as §1, §2

NCI-H460 (Lung) = test: In vitro one dose primary anticancer assay (NCI); assay type: cell-based, human; conditions: one dose at 10^−4 molar concentration
Protocol: as §1, §2

sixty human tumour cells = test: NCI in vitro cytotoxicity, SRB assay, mean graph midpoints; assay type: cell-based; conditions: 48 h continuous drug exposure, human tumour cell lines
Protocol: as §1, §2

SMILES | Growth percentages (Breast) MCF7 (MCF7 (Breast)) [%] | Growth percentages (CNS) SF-268 (SF-268 (CNS)) [%] | Growth percentages (Lung) NCI-H460 (NCI-H460 (Lung)) [%] | Log10 TGI mean graph midpoint (MG_MID) (sixty human tumour cells)
COc1cc2c(cc1OCCCCC(=O)Nc1ccc3ccc4cccc5ccc1c3c45)N=C[C@@H]1CCCN1C2=O [Vg, 7-Methoxy-8-[N-(1″-pyrenyl)-butane-4′-carboxamide]-oxy-(11aS)-1,2,3,11a-tetra-hydro-5H-pyrrolo[2,1-c][1,4]benzodiazepin-5-one] | 72 | 131 | 106 | –
COc1cc2c(cc1OCCCC(=O)Nc1ccc3ccc4cccc5ccc1c3c45)N=C[C@@H]1CCCN1C2=O [Ve, 7-Methoxy-8-[N-(1″-pyrenyl)-propane-3′-carboxamide]-oxy-(11aS)-1,2,3,11a tetra-hydro-5H-pyrrolo[2,1-c][1,4]benzodiazepin-5-one] | 31 | 70 | 11 | −6.89
